US20030181377A1, “Inhibition of VEGF receptor signaling reverses tumor resistance to radiotherapy” (Vanderbilt University, priority 2002, published 2003)

B1: ExFlk.6His: soluble extracellular component of Flk-1 tagged with 6 histidine residues (protein, UniProt P35918 20-762, looked up)
extracellular domain: ASVGLPGDFLHPPKLSTQKDILTILANTTLQITCRGQRDLDWLWPNAQRDSEERVLVTECGGGDSIFCKTLTIPRVVGNDTGAYKCSYRDVDIASTVYVYVRDYRSPFIASVSDQHGIVYITENKNKTVVIPCRGSISNLNVSLCARYPEKRFVPDGNRISWDSEIGFTLPSYMISYAGMVFCEAKINDETYQSIMYIVVVVGYRIYDVILSPPHEIELSAGEKLVLNCTARTELNVGLDFTWHSPPSKSHHKKIVNRDVKPFPGTVAKMFLSTLTIESVTKSDQGEYTCVASSGRMIKRNRTFVRVHTKPFIAFGSGMKSLVEATVGSQVRIPVKYLSYPAPDIKWYRNGRPIESNYTMIVGDELTIMEVTERDAGNYTVILTNPISMEKQSHMVSLVVNVPPQIGEKALISPMDSYQYGTMQTLTCTVYANPPLHHIQWYWQLEEACSYRPGQTSPYACKEWRHVEDFQGGNKIEVTKNQYALIEGKNKTVSTLVIQAANVSALYKCEAINKAGRGERVISFHVIRGPEITVQPAAQPTEQESVSLLCTADRNTFENLTWYKLGSQATSVHMGESLTPVCKNLDALWKLNGTMFSNSTNDILIVAFQNASLQDQGDYVCSAQDKKTKKRHCLVKQLIILERMAPMITGNLENQTTTIGETIEVTCPASGNPTPHITWFKDNETLVEDSGIVLRDGNRNLTIRRVRKEDGGLYTCQACNVLGCARAETLFIIEGAQEKTNLE
modifications: extracellular domain His6 tag

Assays:
[1] = tested on: tumor blood flow (B16F0, LLC, GL261, D54 tumors); assay: Restoration of tumor blood flow after radiotherapy (Doppler); type: in vivo, mice; conditions: SU5416 in combination with radiation, measured daily for 7 days; radiation-only controls restored flow by day 7
From the text: FIG. 7 is a bar graph depicting inhibition of tumor revascularization via administration of a VEGF-R2 inhibitor. Doppler analysis of blood flow in four tumor types is shown on 3, 5, and 7 days following radiation treatment. Animals received radiation treatment alone (control) or in combination with SU5416. In control animals, tumor revascularization occurs within 7 days following radiation treatment. Tumor revascularization is repressed in animals receiving SU5416 in combination with radiation treatment. Open bars, B16F0 tumors; solid bars, LLC tumors; stippled bars, GL261 tumors; hatched bars, D54 tumors.
Tumor-bearing mice were generated as described in Example 1. […] Control animals were treated with radiation alone. Doppler analysis of tumor blood flow was measured daily for 7 days using the methods described in Example 3. In control animals receiving only radiation treatment, restoration of tumor blood flow was observed by day 7.

[2] = tested on: HUVEC; assay: Radiation-induced apoptosis in endothelial cells (HUVEC); type: cell-based, human
Description: FIG. 5 is a bar graph depicting an increased percentage of endothelial cells undergoing apoptosis in response to VEGF-R2 inhibition followed by radiotherapy. […] Cells were treated. with 6 Gy of radiation and stained 24 hours later. The percentage of cells undergoing apoptosis was determined for each of the treatment groups as described in Example 6. The mean percentage of apoptotic cells and the standard error of the mean were determined using 4 culture plates in each treatment group.
To determine whether Flk-1 inhibitors enhance radiation-induced intrinsic cell death mechanisms, radiation-induced apoptosis in HUVEC human primary culture endothelial cells, 3B11 murine endothelial cells, and human microdermal endothelial cells (HMEC) was studied following Flk-1 inhibition. […] Cells were then treated with 6 Gy of ionizing radiation. Cultures were stained to reveal apoptotic cells 24 hours later. Endothelial cell death was quantified by counting the number of apoptotic bodies in 100 cells.

[3] = tested on: EPCs in GI261 gliomas; assay: Endothelial progenitor cell (EPC) infiltration of irradiated tumor; type: in vivo, mice; conditions: SU5416 and radiation; tumor sections on days 1, 4 and 7
Description: EPCs were isolated from peripheral circulation, fixed with paraformaldehyde, and incubated with antibodies that specifically bind to Flk or to CD31. A fluorescently-labeled secondary antibody was used to detect Flk and CD31 (PECAM; platelet-endothelial cell adhesion molecule 1) proteins on the surface of EPCs.
Mice bearing GI261 gliomas, generated as described in Example 1, received radiation […] treatment of the tumor. EPCs were isolated from peripheral circulation and fluorescently labeled with Dil (1,1′-dioctadecyl-3,3,3′,3′-tetramethylindocarbocyanine perchlorate; available from Molecular Probes, Inc., Eugene, Oreg., United States of America). Labeled EPCs were then administered via tail vein injection to tumor-bearing mice immediately following tumor irradiation. Tumor sections were obtained on days 1, 4, and 7 following irradiation. In control mice, EPCs were detected in the perivascular space at day 4, and then proliferated and migrated into to the tumor by day 7.

[4] = tested on: GL261 and B16F0 tumor blood flow; assay: Power Doppler sonography of tumor blood flow; type: in vivo, C57BL6 mice
From the text: Power Doppler sonography was used to study the response of tumor blood vessels to ionizing radiation. This method utilizes amplitude to measure flow in microvasculature. Tumors were imaged with a 10-5 MHz ENTOS® linear probe (Advanced Technology Laboratories, Inc., Bothell, Wash., United States of America) attached to an HDI® 5000 diagnostic ultrasound system (Advanced Technology Laboratories, Inc., Bothell, Wash., United States of America).
Power Doppler sonography images were obtained with the power gain set to 82%. Care was taken to minimize motion artifact. A 20-frame cineloop sweep of the entire tumor was obtained with the probe perpendicular to the long axis of the lower extremity along the entire length of the tumor.
The images were analyzed using HDI® software (Advanced Technology Laboratories, Inc., Bothell, Wash., United States of America). This software allows direct evaluation of Power Doppler cineloop raw data. Color area was recorded for the entire tumor. […]
To determine whether inhibition of Flk-1-mediated signal transduction also enhances the cytotoxic effects of radiotherapy in established tumors, Power Doppler sonography was used to quantify blood flow in 1 cm diameter tumors treated with Flk-1 inhibitors and ionizing radiation. […] Blood flow was quantified by Power Doppler sonography on days 4 and 7 according to methods described in Example 3.

[5] = tested on: GL261 and B16F0 tumor blood vessels; assay: Tumor vascular window model (vascular length density); type: in vivo, C57BL6 mice
Description: Penicillin/streptomycin solution (200 μl; available from GIBCO™ Invitrogen Corporation, Carlsbad, Calif., United States of America) was injected into the hind limb of the mouse prior to preparation of the window chamber. The dorsal ventral window chamber was prepared using a 3-gram plastic frame, which was applied to the skin of a test animal and remained attached for the duration of the study. Briefly, the chamber was screwed together, and the epidermis was cut and left open with a plastic covering.
To prepare a test animal for application of the plastic frame, the dorsal midline was found along the animal's back, and a clip was placed to hold the skin in position. […]
GL261 and B16F0 cells were implanted into the dorsal skin fold window chamber. […] Scanned slides were analyzed using OPTIMAS® image analysis software (Bioscan, Inc., Edmonds, Wash., United States of America; available from Media Cybernetics, Silver Spring, Md., United States of America) or IMAGE-PRO® software (Media Cybernetics, Silver Spring, Md., United States of America) as described below.
Vascular center lines were positioned by OPTIMAS® software or IMAGE-PRO® software and verified by an observer blinded to the treatment groups. Tumor blood vessels were quantified using OPTIMAS® software, which quantified the vascular length density of blood vessel within the microscopic field. […]

[6] = in vivo; cited from earlier work
[7] = tested on: GL261 tumors; assay: Tumor volume assessment / growth delay; type: in vivo, C57BL6 mice
Description: GL261 tumors were generated by subcutaneous injection of 10^6 viable GL261 cells suspended in 0.2 ml of a 0.6% agarose solution into the right thigh of C57BL6 mice. […] An equal number of large and intermediate size tumors were present in each group. […] Control mice received identical doses and schedule of either SU5416 alone or radiation alone. Twice each week, tumor volumes were measured using skin calipers as previously described by […] et al., 1998; […] et al., 1995; and Staba et al., 1998. Tumor volumes were calculated using a formula: a×b×c/2, where a=maximal width dimension, b=maximal length dimension, and c=maximal depth dimension, which was derived from the formula for an ellipsoid (πd^3/6). Data were calculated as the percent of original (day 0) tumor volume and graphed as fractional tumor volume ±1 standard deviation for each treatment group. Variance was analyzed by the Kruskal-Wallis method (Kruskal & Wallis, 1952). Growth delay was determined as the number of days required for a tumor to reach a predetermined volume, for example three-fold the original volume, or a volume of 1 cm^3. […] In a second experiment, mice were randomly assigned to each of the four treatment groups for a total of 10 mice in each group. […] Flk-1 inhibition and radiation treatments were initiated fourteen days after the tumor cells had been injected and were performed as described herein above.

[8] = tested on: Flk-1; conditions: Lin et al., 1998; cited from earlier work
[9] = tested on: HUVEC; conditions: Lin et al., 1998; cited from earlier work

Molecule | tumor blood flow after radiation treatment [1] | percentage of apoptotic cells, with radiation ([2]; 50 μM SU5416 or 10^8 pfu Ad.ExFlk plus 6 Gy, stained 24 hours later) | percentage of cells undergoing apoptosis, no radiation ([2]; 50 μM SU5416 or 10^8 pfu Ad.ExFlk, not exposed to ionizing radiation) | extravasation of EPCs into the tumor [3] | reduction in tumor blood flow, SU5416 plus radiation ([4]; 0.75 mg intraperitoneal 1 hour prior to irradiation, 3 Gy per day for 7 days, p=0.004 vs either treatment alone) | reduction in tumor blood flow, SU5416 alone ([4]; 0.75 mg intraperitoneal, 3 doses, no radiation, 1 cm GL261 and B16F0 tumors, days 4 and 7) | time to complete destruction of tumor blood vessels ([5]; 0.75 mg administered 1 hour prior to 2 Gy, p=0.02 vs radiation alone) | regression of tumor blood vessels, SU5416 alone ([5]; 0.75 mg, absence of ionizing radiation) | plasma half-life [6] | tumor growth delay, SU5416 alone ([7]; 0.75 mg intraperitoneal on days 0, 4, 7 and 11, first experiment) | tumor volume, SU5416 followed by radiation ([7]; first experiment (FIG. 6A), 0.75 mg i.p. ×4 plus 3 Gy ×8, p=0.01 vs radiation alone, p<0.009 vs SU5416 alone) | tumor volume, SU5416 and radiation ([7]; second experiment (FIG. 6B), 10 mice per group, p=0.01 vs radiation alone, p=0.006 vs SU5416 alone) | activation of Flk-1 [8] | VEGF-induced DNA synthesis and migration in HUVEC [9]
Cc1cc(C)c(/C=C2\C(=O)Nc3ccccc32)[nH]1 [SU5416] | tumor blood flow was repressed | 14% | 4% | extravasation of EPCs into the tumor was prevented | significant reduction in tumor blood flow | minimal reduction | ≤ 24 h | minimal regression of the tumor blood vessels and rapid restoration of vasculature | 1 to 2 h | No growth delay | significantly reduced tumor volumes | significantly reduced tumor volumes | – | –
B1 | – | – | – | – | – | – | – | – | – | – | – | – | blocks activation of Flk-1 | inhibits
